This is an account of results in US10955413B2, “Method for measuring zygomycota and reagent kit for measuring zygomycota” (SEIKAGAKU CORPORATION, priority 2015, dated 2021).

Structures are written as SMILES.

The assay deals with anti-chitosan polyclonal antibody (CTSpAb). Nature of the assay: Competitive ELISA with 3-mer to 6-mer CTS oligosaccharide as competitive substance. The format is binding, fowl. Conditions: CTSpAb diluted 8,000-fold. As for the experimental part:
The Molecular Size of CTS which can be assayed by CTSpAb was determined through a competitive ELISA employing a 3-mer to 6-mer CTS oligosaccharide (product of Seikagaku Corporation) as a competitive substance.
To CTS, 1% (v/v) acetic acid was added so as to adjust the concentration to 2 μg/mL. The thus-prepared solution was added to a plate at 50 μL/well, and the plate was allowed to stand overnight at 4° C. The plate was washed twice with 9.57 mM PBS (pH: 7.5) at 300 μL/well, and then 25% BA/9.57 mM PBS (pH: 7.5) was added thereto at 200 μL/well. The plate was allowed to stand for 1 hour, to thereby fabricate CTS-immobilized plate. The plate was washed repeatedly four times with PBS-T at 300 μL/well. To the plate, a solution prepared by adding 10% BA/PBS-T to the CTS oligosaccharide so as to adjust the concentration to 0.00064 to 10 μg/mL, or 10% BA/PBS-T (CTS oligosaccharide-free) was added to the plate at 100 μL/well. Then, CTSpAb diluted 8,000-fold with 10% BA/PBS-T was added to the plate at 100 μL/well, and the plate was allowed to stand for 1 hour. The plate was washed repeatedly four times with PBS-T at 300 μL/well. Subsequently, a product of peroxidase-labeled anti-fowl IgY (IgG) (H+L) antibody 5,000-fold diluted with 10% BA/PBS-T was added to the plate at 100 μL/well, and the plate was allowed to stand for 1 hour. The plate was washed repeatedly four times with PBS-T at 300 μL/well, and then, TMB reagent was added to the plate at 100 μL/well, and the plate was allowed to stand for 30 minutes. Then, 1 N HCl was added to the plate at 100 μL/well. The absorbance of each well of the plate was measured by means of a well reader MP-96 at a measurement wavelength of 450 nm and a reference wavelength of 630 nm.
As is clear from Table 3, binding of CTSpAb to CTS on the plate was inhibited by 3- to 6-mer CTS oligosaccharide.
A general note: ELISA stands for enzyme-linked immunosorbent assay.

[1] abbreviates: CTS oligosaccharide 0.00064 μg/mL.
The mark [2] stands for this setting: CTS oligosaccharide 0.0032 μg/mL.
Setting [3] is: CTS oligosaccharide 0.016 μg/mL.

In general, % Inhibition refers to the drop in the measured response relative to a control, in per cent. In the case of `N[C@H]1[C@H](O[C@H]2[C@H](O)[C@@H](N)[C@H](O[C@H]3[C@H](O)[C@@H](N)C(O)O[C@@H]3CO)O[C@@H]2CO)O[C@H](CO)[C@@H](O)[C@@H]1O` (stereo partly drawn) [3-mer], the “% Inhibition” value by setting is: under setting [1], 6%; under setting [2], 9%; under setting [3], 11%; (CTS oligosaccharide 0.08 μg/mL) 16%; (CTS oligosaccharide 0.4 μg/mL) 24%; (CTS oligosaccharide 2 μg/mL) 32%. Moreover, the “% Inhibition” value (CTS oligosaccharide 10 μg/mL) came to 44%.
Consider `N[C@H]1[C@H](O[C@H]2[C@H](O)[C@@H](N)[C@H](O[C@H]3[C@H](O)[C@@H](N)[C@H](O[C@H]4[C@H](O)[C@@H](N)[C@H](O[C@H]5[C@H](O)[C@@H](N)C(O)O[C@@H]5CO)O[C@@H]4CO)O[C@@H]3CO)O[C@@H]2CO)O[C@H](CO)[C@@H](O)[C@@H]1O` (stereo partly drawn) [5-mer], for which the “% Inhibition” value reads like this: under setting [1], 28%; under setting [2], 42%; under setting [3], 55%; (CTS oligosaccharide 0.08 μg/mL) 65%; (CTS oligosaccharide 0.4 μg/mL) 69%; (CTS oligosaccharide 2 μg/mL) 70%. The “% Inhibition” value (CTS oligosaccharide 10 μg/mL) amounted to 70%.
As to `N[C@H]1[C@H](O[C@H]2[C@H](O)[C@@H](N)[C@H](O[C@H]3[C@H](O)[C@@H](N)[C@H](O[C@H]4[C@H](O)[C@@H](N)[C@H](O[C@H]5[C@H](O)[C@@H](N)[C@H](O[C@H]6[C@H](O)[C@@H](N)C(O)O[C@@H]6CO)O[C@@H]5CO)O[C@@H]4CO)O[C@@H]3CO)O[C@@H]2CO)O[C@H](CO)[C@@H](O)[C@@H]1O` (stereo partly drawn) [6-mer, chitosan hexamer], the “% Inhibition” value is recorded as 25% under setting [1]; 39% under setting [2]; 51% under setting [3]; 63% (CTS oligosaccharide 0.08 μg/mL); 66% (CTS oligosaccharide 0.4 μg/mL); 68% (CTS oligosaccharide 2 μg/mL). Under “CTS oligosaccharide 10 μg/mL”, the “% Inhibition” value worked out at 68%.
